Experimental data published in patent US10988478B1, “Pyrazolo[1,5a]pyrimidine derivatives as IRAK4 modulators” (Genentech, Inc., priority 2015, dated 2021).

Biological target: human IRAK4 (Homo sapiens (Human), UniProt Q9NWZ3)
Test: IRAK4 kinase inhibition, Transcreener fluorescence polarization ADP assay
Format: biochemical
Conditions: recombinant full-length His6-IRAK4; 125 uM ATP; 90 min; Ki computed using ATP Km 642 uM
Procedure: Compounds were assayed for inhibition of human IRAK4 and IRAK1 catalytic activity using recombinant enzyme produced from insect cells. Full-length IRAK4 protein, carrying an N-terminal His6-Tag, was obtained from Life Technologies (Carlsbad, Calif., USA). The IRAK1 construct was produced internally and was comprised of IRAK1 residues Arg194 to Ser712, preceded by an NH2-terminal His6 tag and the coding sequence for glutathione-S-transferase.

Sequence of human IRAK4 (Q9NWZ3 whole entry): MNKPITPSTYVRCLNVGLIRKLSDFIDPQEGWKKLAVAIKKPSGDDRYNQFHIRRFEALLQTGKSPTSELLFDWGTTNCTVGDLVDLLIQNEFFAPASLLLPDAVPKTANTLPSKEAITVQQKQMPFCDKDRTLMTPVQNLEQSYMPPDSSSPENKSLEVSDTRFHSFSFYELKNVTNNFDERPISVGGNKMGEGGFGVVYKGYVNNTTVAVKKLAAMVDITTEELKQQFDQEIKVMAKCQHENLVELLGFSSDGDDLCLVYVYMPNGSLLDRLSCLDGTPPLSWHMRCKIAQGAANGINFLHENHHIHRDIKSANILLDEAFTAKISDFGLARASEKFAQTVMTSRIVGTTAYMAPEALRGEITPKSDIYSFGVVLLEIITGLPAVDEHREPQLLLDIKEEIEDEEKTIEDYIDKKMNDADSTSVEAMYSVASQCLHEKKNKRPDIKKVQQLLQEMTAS

SMILES: CNC(=O)[C@@]1(C)Cc2cc(NC(=O)c3cnn4cccnc34)c(N3CCOCC3)cc2O1 [Example 49, (R)—N-(2-Methyl-2-(methylcarbamoyl)-6-morpholino-2,3-dihydrobenzofuran-5-yl)pyrazolo[1,5-a]pyrimidine-3-carboxamide]
- Ki: 22 nM

SMILES: C[C@]1(C(F)F)Cc2cc(NC(=O)c3cnn4cccnc34)c(N3CCOCC3)cc2O1 [Example 50, (R)—N-(2-(Difluoromethyl)-2-methyl-6-morpholino-2,3-dihydrobenzofuran-5-yl)pyrazolo[1,5-a]pyrimidine-3-carboxamide]
- Ki: 6.2 nM

SMILES: C[C@@]1(C(F)F)Cc2cc(NC(=O)c3cnn4cccnc34)c(N3CCOCC3)cc2O1 [Example 51, (S)—N-(2-(Difluoromethyl)-2-methyl-6-morpholino-2,3-dihydrobenzofuran-5-yl)pyrazolo[1,5-a]pyrimidine-3-carboxamide]
- Ki: 9.6 nM

SMILES: Cc1cnc2c(C(=O)Nc3cc4c(cc3N3CCC(C(C)(C)O)CC3)O[C@@](C)(CO)C4)cnn2c1 [Example 52, (R)—N-(2-(Hydroxymethyl)-6-(4-(2-hydroxypropan-2-yl)piperidin-1-yl)-2-methyl-2,3-dihydrobenzofuran-5-yl)-6-methylpyrazolo[1,5-a]pyrimidine-3-carboxamide]
- Ki: 3.8 nM

SMILES: Cc1cnc2c(C(=O)Nc3cc4c(cc3N3CCC(C(C)(C)O)CC3)O[C@](C)(CO)C4)cnn2c1 [Example 53, (S)—N-(2-(Hydroxymethyl)-6-(4-(2-hydroxypropan-2-yl)piperidin-1-yl)-2-methyl-2,3-dihydrobenzofuran-5-yl)-6-methylpyrazolo[1,5-a]pyrimidine-3-carboxamide]
- Ki: 2.7 nM

SMILES: C[C@]1(CO)Cc2cc(NC(=O)c3cnn4cc(F)cnc34)c(N3CCOCC3)cc2O1 [Example 54, (R)-6-Fluoro-N-(2-(hydroxymethyl)-2-methyl-6-morpholino-2,3-dihydrobenzofuran-5-yl)pyrazolo[1,5-a]pyrimidine-3-carboxamide]
- Ki: 16 nM

SMILES: C[C@@]1(CO)Cc2cc(NC(=O)c3cnn4cc(F)cnc34)c(N3CCOCC3)cc2O1 [Example 55, (S)-6-Fluoro-N-(2-(hydroxymethyl)-2-methyl-6-morpholino-2,3-dihydrobenzofuran-5-yl)pyrazolo[1,5-a]pyrimidine-3-carboxamide]
- Ki: 34 nM

SMILES: C[C@@]1(CO)Cc2cc(NC(=O)c3cnn4cccnc34)c(N3CC[C@H](F)C3)cc2O1 [Example 56, N-[(2S)-6-[(3S)-3-Fluoropyrrolidin-1-yl]-2-(hydroxymethyl)-2-methyl-3H-benzofuran-5-yl]pyrazolo[1,5-a]pyrimidine-3-carboxamide]
- Ki: 21 nM

SMILES: C[C@]1(CO)Cc2cc(NC(=O)c3cnn4cccnc34)c(N3CC[C@H](F)C3)cc2O1 [Example 57, N-[(2R)-6-[(3S)-3-Fluoropyrrolidin-1-yl]-2-(hydroxymethyl)-2-methyl-3H-benzofuran-5-yl]pyrazolo[1,5-a]pyrimidine-3-carboxamide]
- Ki: 60 nM

SMILES: C[C@]1(CO)Cc2cc(NC(=O)c3cnn4cccnc34)c(N3CC[C@@H](F)C3)cc2O1 [Example 58, N-[(2R)-6-[(3R)-3-Fluoropyrrolidin-1-yl]-2-(hydroxymethyl)-2-methyl-3H-benzofuran-5-yl]pyrazolo[1,5-a]pyrimidine-3-carboxamide]
- Ki: 36 nM

SMILES: C[C@@]1(CO)Cc2cc(NC(=O)c3cnn4cccnc34)c(N3CC[C@@H](F)C3)cc2O1 [Example 59, N-[(2S)-6-[(3R)-3-Fluoropyrrolidin-1-yl]-2-(hydroxymethyl)-2-methyl-3H-benzofuran-5-yl]pyrazolo[1,5-a]pyrimidine-3-carboxamide]
- Ki: 9.6 nM

SMILES: CC1(C)Cc2cc(NC(=O)c3cnn4cccnc34)c(N3CCN(CCO)CC3)cc2O1 [Example 60, N-[6-[4-(2-Hydroxyethyl)piperazin-1-yl]-2,2-dimethyl-3H-benzofuran-5-yl]pyrazolo[1,5-a]pyrimidine-3-carboxamide]
- Ki: 6.6 nM

SMILES: CC1(C)Cc2cc(NC(=O)c3cnn4cc(C5CC5)cnc34)c(N3CCOCC3)cc2O1 [Example 61, 6-Cyclopropyl-N-(2,2-dimethyl-6-morpholino-3H-benzofuran-5-yl)pyrazolo[1,5-a]pyrimidine-3-carboxamide]
- Ki: 35 nM

SMILES: CC1(C)Cc2cc(NC(=O)c3cnn4cccnc34)c(C3CCNCC3)cc2O1 [Example 62, N-[2,2-Dimethyl-6-(4-piperidyl)-3H-benzofuran-5-yl]pyrazolo[1,5-a]pyrimidine-3-carboxamide]
- Ki: 260 nM

SMILES: CN1CCC(c2cc3c(cc2NC(=O)c2cnn4cccnc24)CC(C)(C)O3)CC1 [Example 63, N-[2,2-Dimethyl-6-(1-methyl-4-piperidyl)-3H-benzofuran-5-yl]pyrazolo[1,5-a]pyrimidine-3-carboxamide]
- Ki: 390 nM

SMILES: CC1(C)Cc2cc(NC(=O)c3cnn4cccnc34)c(O[C@H]3CC[C@@H](O)CC3)cc2O1 [Example 64, Cis-N-[6-(4-hydroxycyclohexoxy)-2,2-dimethyl-3H-benzofuran-5-yl]pyrazolo[1,5-a]pyrimidine-3-carboxamide]
- Ki: 8.7 nM

SMILES: CC1(C)Cc2cc(NC(=O)c3cnn4cccnc34)c(O[C@H]3CC[C@H](O)CC3)cc2O1 [Example 65, Trans-N-[6-(4-hydroxycyclohexoxy)-2,2-dimethyl-3H-benzofuran-5-yl]pyrazolo[1,5-a]pyrimidine-3-carboxamide]
- Ki: 9.2 nM

SMILES: C[C@]1(CO)Cc2cc(NC(=O)c3cnn4cccnc34)c(N3CCC(F)(F)C3)cc2O1 [Example 66, N-[(2R)-6-(3,3-Difluoropyrrolidin-1-yl)-2-(hydroxymethyl)-2-methyl-3H-benzofuran-5-yl]pyrazolo[1,5-a]pyrimidine-3-carboxamide]
- Ki: 24 nM

SMILES: C[C@@]1(CO)Cc2cc(NC(=O)c3cnn4cccnc34)c(N3CCC(F)(F)C3)cc2O1 [Example 67, N-[(2S)-6-(3,3-Difluoropyrrolidin-1-yl)-2-(hydroxymethyl)-2-methyl-3H-benzofuran-5-yl]pyrazolo[1,5-a]pyrimidine-3-carboxamide]
- Ki: 4.4 nM

SMILES: CC1(C)Cc2cc(NC(=O)c3cnn4cccnc34)c(N3CC(O)C(F)(F)C3)cc2O1 (centres unmarked) [Example 68, N-(6-(3,3-Difluoro-4-hydroxypyrrolidin-1-yl)-2,2-dimethyl-2,3-dihydrobenzofuran-5-yl)pyrazolo[1,5-a]pyrimidine-3-carboxamide]
- Ki: 9.8 nM

SMILES: CC1(C)Cc2cc(NC(=O)c3cnn4cc(C(F)(F)F)cnc34)c(N3CCOCC3)cc2O1 [Example 69, N-(2,2-Dimethyl-6-morpholino-2,3-dihydrobenzofuran-5-yl)-6-(trifluoromethyl)pyrazolo[1,5-a]pyrimidine-3-carboxamide]
- Ki: 27 nM

SMILES: CC1(C)Cc2cc(NC(=O)c3cnn4cccnc34)c(OCC(F)(F)F)cc2O1 [Example 70, N-[2,2-Dimethyl-6-(2,2,2-trifluoroethoxy)-3H-benzofuran-5-yl]pyrazolo[1,5-a]pyrimidine-3-carboxamide]
- Ki: 28 nM

SMILES: C[C@]1(CO)Cc2cc(NC(=O)c3cnn4cccnc34)c(C(F)(F)F)cc2O1 [Example 71, N-[(2R)-2-(Hydroxymethyl)-2-methyl-6-(trifluoromethyl)-3H-benzofuran-5-yl]pyrazolo[1,5-a]pyrimidine-3-carboxamide]
- Ki: 920 nM

SMILES: C[C@@]1(CO)Cc2cc(NC(=O)c3cnn4cccnc34)c(C(F)(F)F)cc2O1 [Example 72, N-[(2S)-2-(hydroxymethyl)-2-methyl-6-(trifluoromethyl)-3H-benzofuran-5-yl]pyrazolo[1,5-a]pyrimidine-3-carboxamide]
- Ki: 450 nM

SMILES: C[C@@]1(CO)Cc2cc(NC(=O)c3cnn4cccnc34)c(C(F)F)cc2O1 [Example 73, N-[(2S)-6-(Difluoromethyl)-2-(hydroxymethyl)-2-methyl-3H-benzofuran-5-yl]pyrazolo[1,5-a]pyrimidine-3-carboxamide]
- Ki: 360 nM

SMILES: C[C@]1(CO)Cc2cc(NC(=O)c3cnn4cccnc34)c(C(F)F)cc2O1 [Example 74, N-[(2R)-6-(difluoromethyl)-2-(hydroxymethyl)-2-methyl-3H-benzofuran-5-yl]pyrazolo[1,5-a]pyrimidine-3-carboxamide]
- Ki: 750 nM

SMILES: CC1(CO)Cc2cc(NC(=O)c3cnn4cc(C(F)F)cnc34)c(N3CCOCC3)cc2O1 (centres unmarked) [Example 75, 6-(Difluoromethyl)-N-[2-(hydroxymethyl)-2-methyl-6-morpholino-3H-benzofuran-5-yl]pyrazolo[1,5-a]pyrimidine-3-carboxamide]
- Ki: 65 nM

SMILES: C[C@]1(C(F)(F)F)Cc2cc(NC(=O)c3cnn4cccnc34)c(N3CCOCC3)cc2O1 [Example 76, (R)—N-(2-Methyl-6-morpholino-2-(trifluoromethyl)-2,3-dihydrobenzofuran-5-yl)pyrazolo[1,5-a]pyrimidine-3-carboxamide]
- Ki: 25 nM

SMILES: C[C@@]1(C(F)(F)F)Cc2cc(NC(=O)c3cnn4cccnc34)c(N3CCOCC3)cc2O1 [Example 77, (S)—N-(2-methyl-6-morpholino-2-(trifluoromethyl)-2,3-dihydrobenzofuran-5-yl)pyrazolo[1,5-a]pyrimidine-3-carboxamide]
- Ki: 13 nM

SMILES: C[C@]1(CO)Cc2cc(NC(=O)c3cnn4cccnc34)c(N3CCOCC3)c(Cl)c2O1 [Example 80, (R)—N-(7-Chloro-2-(hydroxymethyl)-2-methyl-6-morpholino-2,3-dihydrobenzofuran-5-yl)pyrazolo[1,5-a]pyrimidine-3-carboxamide]
- Ki: 34 nM

SMILES: C[C@@]1(CO)Cc2cc(NC(=O)c3cnn4cccnc34)c(N3CCOCC3)c(Cl)c2O1 [Example 81, (S)—N-(7-chloro-2-(hydroxymethyl)-2-methyl-6-morpholino-2,3-dihydrobenzofuran-5-yl)pyrazolo[1,5-a]pyrimidine-3-carboxamide]
- Ki: 100 nM

SMILES: CC1(C)COc2cc(N3CCOCC3)c(NC(=O)c3cnn4cccnc34)cc2N1 [Example 82, N-(3,3-Dimethyl-7-morpholino-3,4-dihydro-2H-benzo[b][1,4]oxazin-6-yl)pyrazolo[1,5-a]pyrimidine-3-carboxamide]
- Ki: 190 nM
